The record followed here is patent EP0165775A1, “Antifungal azole compounds” (IMPERIAL CHEMICAL INDUSTRIES PLC, priority 1984, dated 1985).

The structures appear in SMILES notation.

In the assay the test system is Candida albicans and Trichophyton mentagrophytes var. quinkeanum. Description: animal or person. It counts as in vivo. The following applies: 168 h; female mice, oral dosing twice on day 0 and once daily on days 1-4; skin lesions scored and vaginal samples cultured on day 7; read-out: minimum effective dose (MED). The method, then: The following Monday (day 0) they are clipped on the back and then dosed orally with test compounds. They are then inoculated with Candida albicans in the vagina and Trichophyton mentagrophytes var. quinkeanum on the back, and then given a second dose of the same compound. Dosing is repeated once daily on days 1-4. On day 7 skin lesions are scored visually and vaginal samples taken for culture on agar. Groups of 5 mice are used and compounds are dosed initially at a level of 250mg./kg. The dose is then reduced sequentially until a minimum effective dose (MED) is found.

Regarding `OC(Cn1cncn1)(Cn1cnc(Br)n1)c1ccc(F)cc1F` (stereo not drawn) [Example 1, 1-(3-bromo-1,2,4-triazol-1-yl)-2-(2,4-difluorophenyl)-3-(1,2,4-triazol-l-yl)propan-2-ol], the minimal effective dose is 2.5 mg/kg.
